Laboratory results as given in article PMC8545111, “Molecular Basis of the Versatile Regulatory Mechanism of HtrA-Type Protease AlgW from Pseudomonas aeruginosa” (mBio, 2021).
Numbering of substitutions follows the chain as printed. “And” between values parts separate entries of the source, which are not always exact repeats. Identical values can stand only once. Non-standard residues stand in square brackets, D forms with d. Residues, ends and D or L forms follow the SMILES beside them. *: point of attachment. pNA = O=[N+]([O-])c1ccc(N*)cc1; 2Abz = Nc1ccccc1C(=O)O

How the values were obtained:
AlgW [1] = assay: Muc- protease degradation assay; type: biochemical, Pseudomonas aeruginosa; conditions: MucB 130 μM, AlgW 25 μM; lipid-A 100 μM, DDM 400 μM or decapeptide 100 μM; 25 mM Tris-HCl pH 7.5, 150 mM NaCl, 37°C; 30 min; gel bands
Procedure: (§1) FIG 1 Degradation of MucA and MucB by AlgW in response to the peptides and lipid signals. (A and B) MucB/RseB (130 μM) was cleaved by AlgW/DegS (25 μM) in the presence of different agonist combinations, including lipid-A (100 μM), lipid-like detergent DDM (400 μM), decapeptide SVRDELRWVF (100 μM), and decapeptide combined with lipid-A or DDM. (C and D) MucB/RseB-protected MucA^peri/RseA^peri degradation by AlgW/DegS in the presence of different lengths of the activating peptides in a time-dependent manner. MucA^peri (125 μM), AlgW (25 μM), MucB (130 μM), activation peptides (tripeptide WVF or decapeptide SVRDELRWVF, 100 μM), and lipid-A (100 μM) were incubated at 37°C in a time-dependent manner in buffer (25 mM Tris-HCl pH 7.5, 150 mM NaCl). Similarly, RseA^peri (125 μM) was cleaved by DegS (25 μM) in the presences of RseB (130 μM), activation peptides (tripeptide YYF or decapeptide DNRDGNVYYF, 100 μM), and lipid-A (100 μM) at 37°C in a time-dependent manner in a phosphate buffer containing 50 mM NaHPO4 (pH 7.5), 200 mM NaCl, 10% glycerol, and 4 mM EDTA. (E and F) MucA^peri/RseA^peri was cleaved by AlgW/DegS in the presence of different agonist combinations in a time-dependent manner. MucA^peri (125 μM), AlgW (25 μM), activation decapeptide SVRDELRWVF (100 μM), and lipid-A (100 μM) were incubated at 37°C in a time-dependent manner in buffer. […]

DegS = assay: Rse- protease degradation assay; type: biochemical, Escherichia coli; conditions: DegS 25 μM, phosphate buffer pH 7.5, 37°C
Procedure: as §1

AlgW-DegS-LA (63–78) = system: T1, AlgW-DegS-LA (63–78); assay: Fluorogenic Abz-VLAG-pNA cleavage by peptide-activated AlgW and LA loop mutants (200 nM), 25 mM Tris pH 7.5, 150 mM NaCl, 37°C, Michaelis-Menten fit.; type: biochemical; conditions: n = 3
T1 construct: residues 30-389; LA loop 76-97 replaced by the corresponding region 63-78 of DegS
Procedure: Based on the identified MucA and MucB cleavage sites for AlgW ([6], [13]), self-quenching fluorogenic tetrapeptides derived from 134-VLAG-137 of MucA (Abz-VLAG-pNA), 211-TVAW-214 of MucB (Abz-TVAW-pNA), and alanine tetrapeptide (Abz-AAAA-pNA) were synthesized and subjected to real-time measurement of AlgW proteolytic activity in the presence of excessive peptides (10 mM) (Fig. 2A). Compared with the negative-control group (using Abz-AAAA-pNA substrate), both Abz-VLAG-pNA and Abz-TVAW-pNA could be efficiently cleaved by AlgW. […]
(§2) For the enzyme mechanism of AlgW (30–389) and mutants, two internally quenched fluorescent peptide substrates incorporating the peptidase cleavage site of MucA/MucB, Abz-VLAG-pNA and Abz-TVAW-pNA, were designed and synthesized (GL Biochem Shanghai Ltd., China). In the intact peptide, the fluorescence of the anthraniloyl group is quenched by the P-nitroaniline (Abz is a fluorogenic group, and pNA is a quencher of fluorescence). This quenched fluorescence is liberated upon cleavage of peptide by 200 nM AlgW and mutants (200/3 nM for trimer), resulting in increased fluorescence that can then be monitored fluorometrically. […] The fluorescent degradation products were monitored at 60-s intervals at fluorescence wavelength—λex = 310 nm, λem = 420 nm ([41]). […]

AlgW [2] = assay: AlgW activation by agonist gradient (agonists versus velocity), saturated Abz-VLAG-pNA; type: biochemical, Pseudomonas aeruginosa; conditions: 100 μM Abz-VLAG-pNA, 200 nM AlgW
Procedure: (§3) FIG 2 Determination of enzyme apparent kinetic parameters of dual-signal-activated AlgW. (A) Activity assay of tripeptide or decapeptide-activated AlgW using the quenched fluorescent substrates Abz-VLAG-pNA, Abz-TVAW-pNA, and Abz-AAAA-pNA. All assays were placed in a buffer containing 25 mM Tris (pH 7.5) and 150 mM NaCl at 37°C for 1 h by adding 100 μM substrate, 200 nM AlgW, and 10 mM agonist peptides (tripeptide WVF or decapeptide SVRDELRWVF). (B) The apparent Michaelis-Menten parameters of AlgW cleavage quenched fluorescent substrates Abz-VLAG-pNA (100 μM) under the condition of peptide or lipid activation. (C) The activity assay of peptide or DDM activated AlgW using the saturated quenched fluorescent substrates Abz-VLAG-pNA. Under the gradient of peptide or DDM concentration,100 μM substrate and 200 nM AlgW were coincubated with or without 400 μM DDM or 10 mM agonist peptides in a buffer containing 25 mM Tris (pH 7.5) and 150 mM NaCl at 37°C for 1 h. The final assay volume of all experiments was 100 μl, and the appearance of fluorescent products was monitored at 60-s intervals at fluorescence wavelengths of λex = 310 nm and λem = 420 nm. […] The Kcat for the AlgW trimer was calculated by Kcat = Vmax/(Etotal), (Etotal) = 200/3 nM trimers. […]
as §2

AlgW [3] = biological target: T2, AlgW (Pseudomonas aeruginosa, UniProt Q9HVX1); assay: Activation of 200 nM AlgW cleavage of 100 μM Abz-VLAG-pNA by a DDM gradient without agonist peptide, 25 mM Tris pH 7.5, 150 mM NaCl, 37°C, Hill-type fit.; type: biochemical; conditions: n = 3; read-out: Half-Maximal Activation concentration (μM), DDM gradient
T2 construct: soluble periplasmic region, residues 30-389, pET22b with PreScission-cleavable 6xHis; trimer
T2 sequence (Q9HVX1 entry or part of it): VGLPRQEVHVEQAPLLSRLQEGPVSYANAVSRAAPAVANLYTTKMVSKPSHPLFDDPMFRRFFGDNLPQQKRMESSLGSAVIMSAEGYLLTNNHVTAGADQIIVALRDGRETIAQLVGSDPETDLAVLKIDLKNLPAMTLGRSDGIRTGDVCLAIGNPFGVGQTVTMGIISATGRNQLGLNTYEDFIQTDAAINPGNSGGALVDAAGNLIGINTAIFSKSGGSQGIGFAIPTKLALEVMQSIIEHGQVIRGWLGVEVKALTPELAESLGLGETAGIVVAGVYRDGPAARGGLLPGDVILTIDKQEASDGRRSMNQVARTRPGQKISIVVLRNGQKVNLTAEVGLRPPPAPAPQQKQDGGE
Procedure: as §3, with “Under the gradient of peptide or DDM concentration,100 μM substrate and 200 nM AlgW were coincubated with or without 400 μM DDM or 10 mM agonist peptides in a buffer containing 25 mM Tris (pH 7.5) and 150 mM NaCl at 37°C for 1 h.” left out
In the presence of a fixed amount of AlgW and saturated substrate, we measured the initial rates of AlgW at various concentrations of decapeptide or DDM (Fig. 2C). […]

[4] = biological target: the molecule itself; assay: crystal structure; protein mixed with peptide activator (tripeptide WVF or decapeptide …) prior to crystallization; hanging-drop vapor diffusion at 18°C; molecular replacement

## lipid-A
AlgW [1]
  MucB cleavage by AlgW: could be activated
DegS; RseA^peri 125 μM, lipid-A 100 μM with or without decapeptide DNRDGNVYYF 100 μM
  RseA^peri degradation by DegS: did not display obvious direct or cooperative activation

## DNRDGNVYYF
DegS; RseB 130 μM, decapeptide 100 μM
  RseB cleavage by DegS: no proteolysis was noticed

## CC(C)C[C@H](NC(=O)[C@@H](NC(=O)c1ccccc1N)C(C)C)C(=O)N[C@@H](C)C(=O)NCC(=O)Nc1ccc([N+](=O)[O-])cc1 [Abz-VLAG-pNA, anthraniloyl-Val-Leu-Ala-Gly-p-nitroaniline (quenched fluorogenic tetrapeptide, MucA 134-137)] (H-[2Abz]VLAG-pNA)
AlgW-DegS-LA (63–78)
  Km: 12 ± 2.85 µM

## CCCCCCCCCCCCO[C@@H]1O[C@H](CO)[C@@H](O[C@H]2O[C@H](CO)[C@@H](O)[C@H](O)[C@H]2O)[C@H](O)[C@H]1O [DDM, N-dodecyl-β-D-maltopyranoside]
AlgW [2]; DDM gradient with 10 mM decapeptide (AlgW+Decapeptide), Tris pH 7.5, 37°C, 1 h
  Maximal cleavage activity: 717.8 ± 15.07 µM/min
AlgW [2]; gradient of the agonist alone
  Hill constants: 1.43 and 1.43 ± 0.22
AlgW [2]; gradient of the agonist alone, Tris pH 7.5, 37°C, Hill fit, three independent determinations, read-out: Half-Maximal Activation concentration
  EC50: 92 ± 12.4 µM
AlgW [1]
  MucB cleavage by AlgW: could be activated
AlgW [3]
  EC50: 92 ± 12.4 µM

B1: AlgW_(52-389), periplasmic soluble domain of AlgW for crystallization (enzyme)
chain: PVSYANAVSRAAPAVANLYTTKMVSKPSHPLFDDPMFRRFFGDNLPQQKRMESSLGSAVIMSAEGYLLTNNHVTAGADQIIVALRDGRETIAQLVGSDPETDLAVLKIDLKNLPAMTLGRSDGIRTGDVCLAIGNPFGVGQTVTMGIISATGRNQLGLNTYEDFIQTDAAINPGNSGGALVDAAGNLIGINTAIFSKSGGSQGIGFAIPTKLALEVMQSIIEHGQVIRGWLGVEVKALTPELAESLGLGETAGIVVAGVYRDGPAARGGLLPGDVILTIDKQEASDGRRSMNQVARTRPGQKISIVVLRNGQKVNLTAEVGLRPPPAPAPQQKQDGGE
notes: Vector pET22b-(LEVLFQ/GP)-6xHis has a PreScission site that allows removal of the His tag; source: E. coli BL21(DE3), purified (Ni-NTA, Superdex-75 SEC)
[4]
  stoichiometry N: 3

B2: AlgWS227A (inactive mutant of the periplasmic soluble domain of AlgW, for crystallization) (enzyme)
chain: B1 chain with S176A
notes: AlgW of Pseudomonas aeruginosa, residues 52-389 (construct for crystallization), catalytic serine S227 changed to alanine; source: E. coli BL21(DE3), purified (Ni-NTA, Superdex-75 SEC)
[4]
  stoichiometry N: 3
